In patent US20200131132A1, “FARNESOID X RECEPTOR AGONISTS AND USES THEREOF” (Metacrine, Inc., priority 2017, published 2020) one finds EC50 data, which are given here for 23 molecules.

What is called EC50 is the concentration needed to bring the measured effect to its halfway point. Read a high EC50 as weaker potency.

This test concerns the target T1, hFXR (Homo sapiens, UniProt Q96RI1).
T1 construct: expressed in transfected cells; host or cells: CV-1 cells
T1 sequence (Q96RI1 1-486): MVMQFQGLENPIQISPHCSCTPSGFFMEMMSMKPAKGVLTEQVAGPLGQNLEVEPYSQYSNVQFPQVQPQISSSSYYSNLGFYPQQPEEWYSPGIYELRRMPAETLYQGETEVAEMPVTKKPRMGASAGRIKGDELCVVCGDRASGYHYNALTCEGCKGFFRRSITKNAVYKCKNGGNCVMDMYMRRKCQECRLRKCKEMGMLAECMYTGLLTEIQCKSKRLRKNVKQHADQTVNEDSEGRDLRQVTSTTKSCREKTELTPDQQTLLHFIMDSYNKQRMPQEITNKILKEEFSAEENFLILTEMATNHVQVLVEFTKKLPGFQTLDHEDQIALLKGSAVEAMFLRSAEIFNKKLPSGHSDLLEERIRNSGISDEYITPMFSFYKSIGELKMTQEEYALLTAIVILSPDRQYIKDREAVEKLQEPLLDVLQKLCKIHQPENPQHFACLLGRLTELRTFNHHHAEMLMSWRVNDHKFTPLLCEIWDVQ
T1 sequence (P19793 1-462 partner): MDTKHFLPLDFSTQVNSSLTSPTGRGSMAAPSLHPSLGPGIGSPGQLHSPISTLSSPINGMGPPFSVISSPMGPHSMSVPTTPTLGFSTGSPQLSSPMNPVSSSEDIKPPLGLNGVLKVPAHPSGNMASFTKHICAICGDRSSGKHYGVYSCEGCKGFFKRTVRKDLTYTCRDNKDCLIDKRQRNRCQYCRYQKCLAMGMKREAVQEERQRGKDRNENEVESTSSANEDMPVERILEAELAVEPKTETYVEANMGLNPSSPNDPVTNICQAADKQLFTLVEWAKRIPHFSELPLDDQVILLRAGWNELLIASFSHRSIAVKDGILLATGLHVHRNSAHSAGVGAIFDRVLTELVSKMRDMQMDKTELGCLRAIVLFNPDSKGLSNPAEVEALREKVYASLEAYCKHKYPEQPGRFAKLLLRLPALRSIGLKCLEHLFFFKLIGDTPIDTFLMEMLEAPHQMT
Put plainly: In Vitro FXR Assay (TK). As to conditions: CV-1 cells transfected with hFXR, hRXR, TK-ECRE-luc and pCMX-YFP; compounds incubated 18 hrs; luminescence. In kind it is cell-based. As for the experimental part:
CV-1 cells were seeded at a density of 2,000,000 cells in a T175 flask with DMEM+10% charcoal double-stripped FBS and incubated at 37° C. in 5% CO2 for 18 h (O/N).
After 18 h of incubation, the medium in the T175 flask was changed with fresh DMEM+10% charcoal super-stripped serum. In a polypropylene tube, 2500 μL OptiMEM (Life Technologies, Cat #31985-062) was combined with expression plasmids for hFXR, hRXR, TK-ECRE-luc and pCMX-YFP. The tube was then briefly vortexed and incubated at room temperature for 5 minutes. Transfection reagent (X-tremeGENE HP from Roche, Cat #06 366 236 001) was added to the OptiMEM/plasmid mixture vortexed and incubated at room temperature for 20 minutes. Following incubation, the transfection reagent/DNA mixture complex was added to cells in the T175 flask and the cells were incubated at 37° C. in 5% CO2 for 18 h (O/N).
Compounds were serially diluted in DMSO and added to transfected CV-1 cells. The cells were then incubated for 18 hrs. The next day cells were lysed and examined for luminescence.
On to `COc1ccc(-c2ccc(CN(C(=O)CC(C)(C)C)c3nccc4cc(OCCN(C)C)ccc34)cc2)cc1C` [Compound 8.04, N-(6-(2-(Dimethylamino)ethoxy)isoquinolin-1-yl)-N-((4′-methoxy-3′-methyl-[1,1′-biphenyl]-4-yl)methyl)-3,3-dimethylbutanamide], for which the concentration giving a half-maximal response (EC50) is 1000 to 10000 nM.

As for `COc1ccc(-c2ccc(CN(C(=O)CC(C)(C)C)c3nccc4cc(OC5CCN(C(=O)OC(C)(C)C)CC5)ccc34)cc2)cc1C` [Compound 8.05, tert-Butyl 4-((1-(N-((4′-methoxy-3′-methyl-[1,1′-biphenyl]-4-yl)methyl)-3,3-dimethylbutanamido)isoquinolin-6-yl)oxy)piperidine-1-carboxylate], the EC50 is above 10000 nM.

In turn, `COc1ccc(-c2ccc(CN(C(=O)CC(C)(C)C)c3nccc4cc(OC5CCN(C)CC5)ccc34)cc2)cc1C` [Compound 8.06, N-((4′-Methoxy-3′-methyl-[1,1′-biphenyl]-4-yl)methyl)-3,3-dimethyl-N-(6-((1-methylpiperidin-4-yl)oxy)isoquinolin-1-yl)butanamide] had a 50% effective concentration (EC50) above 10000 nM.

In turn, `COc1ccc(-c2ccc(CN(C(=O)CC(C)(C)C)c3nccc4cc(OC5CN(C(=O)OC(C)(C)C)C5)ccc34)cc2)cc1C` [Compound 8.07, tert-Butyl 3-((1-(N-((4′-methoxy-3′-methyl-[1,1′-biphenyl]-4-yl)methyl)-3,3-dimethylbutanamido)isoquinolin-6-yl)oxy)azetidine-1-carboxylate] showed an EC50 above 10000 nM.

`COCCCOc1ccc2c(N(Cc3ccc(-c4ccc(OC)c(C)c4)cc3)C(=O)CC(C)(C)C)nccc2c1` [Compound 8.08, N-((4′-Methoxy-3′-methyl-[1,1′-biphenyl]-4-yl)methyl)-N-(6-(3-methoxypropoxy)isoquinolin-1-yl)-3,3-dimethylbutanamide] had a concentration giving a half-maximal response (EC50) of at most 1000 nM.

`COc1ccc(-c2ccc(CN(C(=O)CC(C)(C)C)c3nccc4cc(OC5COC5)ccc34)cc2)cc1C` [Compound 8.09, N-((4′-Methoxy-3′-methyl-[1,1′-biphenyl]-4-yl)methyl)-3,3-dimethyl-N-(6-(oxetan-3-yloxy)isoquinolin-1-yl)butanamide] returned an EC50 of at most 1000 nM.

Regarding `COc1ccc(-c2ccc(CN(C(=O)CC(C)(C)C)c3nccc4cc(OCCO)ccc34)cc2)cc1C` [Compound 8.11, N-(6-(2-Hydroxyethoxy)isoquinolin-1-yl)-N-((4′-methoxy-3′-methyl-[1,1′-biphenyl]-4-yl)methyl)-3,3-dimethylbutanamide], the concentration for a half-maximal effect (EC50) was at most 1000 nM.

With `COc1ccc(-c2ccc(CN(C(=O)CC(C)(C)C)c3nccc4cc(OCCCN(C)C)ccc34)cc2)cc1C` [Compound 8.12, N-(6-(3-(Dimethylamino)propoxy)iso-quinolin-1-yl)-N-((4′-methoxy-3′-methyl-[1,1′-biphenyl]-4-yl)methyl)-3,3-dimethylbutanamide], the EC50 lay within 1000 to 10000 nM.

Molecule `COc1ccc(-c2ccc(CN(C(=O)CC(C)(C)C)c3nccc4cc(OCCCO)cnc34)cc2)cc1C` [Compound 8.13, N-(3-(3-Hydroxypropoxy)-1,7-naphthyridin-8-yl)-N-((4′-methoxy-3′-methyl-[1,1′-biphenyl]-4-yl)methyl)-3,3-dimethylbutanamide] showed an EC50 of at most 1000 nM.

As to `COCCOc1ccc2c(N(Cc3ccc(-c4ccc(OC)c(C)c4)cc3)C(=O)CC(C)(C)C)nccc2c1` [Compound 9, N-((4′-Methoxy-3′-methyl-[1,1′-biphenyl]-4-yl)methyl)-N-(6-(2-methoxyethoxy)isoquinolin-1-yl)-3,3-dimethylbutanamide], the concentration giving a half-maximal response (EC50) was at most 1000 nM.

The molecule `COC(=O)COc1ccc2c(N(Cc3ccc(-c4ccc(OC)c(C)c4)cc3)C(=O)CC(C)(C)C)nccc2c1` [Compound 9.01, Methyl 2-((1-(N-((4′-methoxy-3′-methyl-[1,1′-biphenyl]-4-yl)methyl)-3,3-dimethylbutanamido)isoquinolin-6-yl)oxy)acetate] returned a concentration giving a half-maximal response (EC50) of 1000 to 10000 nM.

On to `COC(=O)COCc1ccc2c(N(Cc3ccc(-c4ccc(OC)c(C)c4)cc3)C(=O)CC(C)(C)C)nccc2c1` [Compound 9.02, Methyl 2-((1-(N-((4′-methoxy-3′-methyl-[1,1′-biphenyl]-4-yl)methyl)-3,3-dimethylbutanamido)isoquinolin-6-yl)methoxy)acetate], for which the EC50 is at most 1000 nM.

The molecule `COCc1ccc2c(N(Cc3ccc(-c4ccc(OC)c(C)c4)cc3)C(=O)CC(C)(C)C)nccc2c1` [Compound 9.03, N-((4′-Methoxy-3′-methyl-[1,1′-biphenyl]-4-yl)methyl)-N-(6-(methoxymethyl)isoquinolin-1-yl)-3,3-dimethylbutanamide] gave an EC50 of at most 1000 nM.

The molecule `COCCOCc1ccc2c(N(Cc3ccc(-c4ccc(OC)c(C)c4)cc3)C(=O)CC(C)(C)C)nccc2c1` [Compound 9.04, N-((4′-Methoxy-3′-methyl-[1,1′-biphenyl]-4-yl)methyl)-N-(6-((2-methoxyethoxy)methyl)isoquinolin-1-yl)-3,3-dimethylbutanamide] yielded a 50% effective concentration (EC50) of at most 1000 nM.

Molecule `COc1ccc(-c2ccc(CN(C(=O)CC(C)(C)C)c3nccc4cc(OCC(C)CO)ccc34)cc2)cc1C` (centres unmarked) [Compound 10, N-(6-(3-Hydroxy-2-methylpropoxy)isoquinolin-1-yl)-N-((4′-methoxy-3′-methyl-[1,1′-biphenyl]-4-yl)methyl)-3,3-dimethylbutanamide] came in with a concentration for a half-maximal effect (EC50) of at most 1000 nM.

The molecule `COc1ccc(-c2ccc(CN(C(=O)CC(C)(C)C)c3nccc4cc(OC(C)CCO)ccc34)cc2)cc1C` (centres unmarked) [Compound 10.01, N-(6-((4-Hydroxybutan-2-yl)oxy)isoquinolin-1-yl)-N-((4′-methoxy-3′-methyl-[1,1′-biphenyl]-4-yl)methyl)-3,3-dimethylbutanamide] had an EC50 of at most 1000 nM.

In turn, `COc1ccc(-c2ccc(CN(C(=O)CC(C)(C)C)c3nccc4cc(OC5CCC(O)C5)ccc34)cc2)cc1C` (centres unmarked) [Compound 10.02, N-(6-((3-Hydroxycyclopentyl)oxy)iso-quinolin-1-yl)-N-((4′-methoxy-3′-methyl-[1,1′-biphenyl]-4-yl)methyl)-3,3-dimethylbutanamide] yielded a 50% effective concentration (EC50) of at most 1000 nM.

With `COc1ccc(-c2ccc(CN(C(=O)CC(C)(C)C)c3nccc4cc(OCCC(C)O)ccc34)cc2)cc1C` (centres unmarked) [Compound 10.03, N-(6-(3-Hydroxybutoxy)isoquinolin-1-yl)-N-((4′-methoxy-3′-methyl-[1,1′-biphenyl]-4-yl)methyl)-3,3-dimethylbutanamide], the concentration giving a half-maximal response (EC50) was at most 1000 nM.

Molecule `CCOc1ccc2c(N(Cc3ccc(-c4ccc(OC)c(C)c4)cc3)C(=O)CC(C)(C)C)nccc2c1` [Compound 11, N-(6-Ethoxyisoquinolin-1-yl)-N-((4′-methoxy-3′-methyl-[1,1′-biphenyl]-4-yl)methyl)-3,3-dimethylbutanamide] returned an EC50 of at most 1000 nM.

The molecule `COc1ccc(-c2ccc(CN(C(=O)CC(C)(C)C)c3nccc4cc(OC(C)C)ccc34)cc2)cc1C` [Compound 11.01, N-(6-Isopropoxyisoquinolin-1-yl)-N-((4′-methoxy-3′-methyl-[1,1′-biphenyl]-4-yl)methyl)-3,3-dimethylbutanamide] displayed an EC50 of at most 1000 nM.

On to `CCCOc1ccc2c(N(Cc3ccc(-c4ccc(OC)c(C)c4)cc3)C(=O)CC(C)(C)C)nccc2c1` [Compound 11.02, N-((4′-Methoxy-3′-methyl-[1,1′-biphenyl]-4-yl)methyl)-3,3-dimethyl-N-(6-propoxyisoquinolin-1-yl)butanamide], for which the EC50 was at most 1000 nM.

For `COc1ccc2ccnc(N(Cc3ccc(-c4ccc(OC)c(C)c4)cc3)C(=O)CC(C)(C)C)c2c1` [Compound 11.03, N-((4′-Methoxy-3′-methyl-[1,1′-biphenyl]-4-yl)methyl)-N-(7-methoxyisoquinolin-1-yl)-3,3-dimethylbutanamide], the 50% effective concentration (EC50) was at most 1000 nM.

Molecule `COc1ccc(-c2ccc(CN(C(=O)CC(C)(C)C)c3nccc4c(OC)cccc34)cc2)cc1C` [Compound 11.04, N-((4′-Methoxy-3′-methyl-[1,1′-biphenyl]-4-yl)methyl)-N-(5-methoxyisoquinolin-1-yl)-3,3-dimethylbutanamide] showed an EC50 of 1000 to 10000 nM.
